Test results from DBAASP.
≈ marks a conversion by molar mass, not a printed value.

How the values were obtained:
Assay in all cases: ≥ marks a high value that may be exact or a test limit, other limits are often not marked, values filed in µg/mL are converted to µM
[1] = system: Escherichia coli ATCC 25922
[2] = system: Staphylococcus aureus ATCC 25923
[3] = system: Pseudomonas aeruginosa ATCC 27853

Row | MIC [1] [µM] | MIC [2] [µM] | MIC [3] [µM] | SMILES
1 | 23.9 (≈ 25 µg/mL) | 9.57 (≈ 9.99 µg/mL) |  | NC(=O)[C@H](Cc1c[nH]c2ccccc12)NC(=O)[C@H](CCCN=C(N)N)NC(=O)[C@H](CCCN=C(N)N)NC(=O)[C@H](CCCN=C(N)N)NC(=O)[C@H](Cc1c[nH]c2ccccc12)NC(=O)[C@@H](N)Cc1c[nH]c2ccccc12 [WWRRRW]
2 | > 100 | > 100 | > 100 | CC(C)[C@H](NC(=O)[C@H](CC(=O)O)NC(=O)[C@H](CO)NC(=O)[C@H](CCCCN)NC(=O)CNC(=O)[C@H](CO)NC(=O)[C@H](CO)NC(=O)[C@H](Cc1cnc[nH]1)NC(=O)[C@@H](N)CCC(N)=O)C(=O)N[C@@H](CCCN=C(N)N)C(=O)N[C@@H](CCCN=C(N)N)C(=O)N[C@@H](Cc1c[nH]c2ccccc12)C(N)=O [QHSSGKSDVRRW]
3 | 3 (≈ 8.92 µg/mL) |  |  | CC[C@H](C)[C@H](NC(=O)CN)C(=O)N[C@@H](CCSC)C(=O)N[C@@H](CC(=O)O)C(=O)N[C@H](C(=O)N[C@H](C(=O)N[C@@H](CCCCN)C(=O)N[C@@H](CC(N)=O)C(=O)N[C@@H](C)C(=O)N[C@@H](C)C(=O)N[C@@H](CCCCN)C(=O)N[C@@H](CC(=O)O)C(=O)N[C@@H](CC(C)C)C(=O)N[C@@H](C)C(=O)NCC(=O)N[C@@H](CCC(N)=O)C(=O)N[C@@H](CC(C)C)C(=O)N[C@@H](CC(C)C)C(=O)N[C@@H](CC(=O)O)C(=O)N[C@@H](CCCCN)C(=O)N[C@@H](CC(C)C)C(=O)N[C@@H](CCCCN)C(=O)N[C@H]1CSSC[C@@H](C(=O)O)NC(=O)CNC(=O)[C@H]([C@@H](C)O)NC(=O)[C@H]([C@@H](C)CC)NC(=O)[C@H](CCCN=C(N)N)NC1=O)C(C)C)[C@@H](C)O [GIMDTVKNAAKDLAGQLLDKLKCRITGC]
4 | 19.1 (≈ 22 µg/mL) | 19.1 (≈ 22 µg/mL) |  | CC[C@H](C)[C@H](NC(=O)[C@H](CCCN=C(N)N)NC(=O)[C@H](CCCCN)NC(=O)[C@H](CC(C)C)NC(=O)[C@H](CC(C)C)NC(=O)CN)C(=O)N[C@@H](CCCCN)C(=O)N[C@H](C(=O)N[C@@H](CC(C)C)C(=O)N[C@@H](CC(C)C)C(N)=O)C(C)C [GLLKRIKVLL]
5 | > 100 |  | > 100 | CC[C@H](C)[C@H](NC(=O)[C@H](Cc1ccc(O)cc1)NC(=O)[C@H](CCC(N)=O)NC(=O)[C@H](CC(C)C)NC(=O)[C@H](C)NC(=O)[C@H](CCCCN)NC(=O)[C@H](CCCCN)NC(=O)[C@H](CCSC)NC(=O)[C@H](CCCCN)NC(=O)[C@@H](N)CCCCN)C(=O)N[C@@H](CCCCN)C(=O)N[C@@H](CC(C)C)C(N)=O [KKMKKALQYIKL]
6 | 110 (≈ 320 µg/mL) |  |  | CC[C@H](C)[C@H](NC(=O)[C@H](Cc1ccccc1)NC(=O)CN)C(=O)N[C@@H](CO)C(=O)N[C@H](C(=O)N[C@H](C(=O)N[C@@H](CCCCN)C(=O)N[C@@H](CC(N)=O)C(=O)N[C@@H](CC(C)C)C(=O)N[C@@H](C)C(=O)N[C@H](C(=O)N[C@@H](CC(N)=O)C(=O)N[C@H](C(=O)N[C@@H](C)C(=O)NCC(=O)N[C@H](C(=O)N[C@H](C(=O)N[C@H](C(=O)N[C@@H](CC(=O)O)C(=O)N[C@H](C(=O)N[C@H](C(=O)N[C@@H](CCCCN)C(=O)N[C@H]1CSSC[C@@H](C(=O)O)NC(=O)CNC(=O)CNC(=O)[C@H]([C@@H](C)O)NC(=O)[C@H](C(C)C)NC(=O)[C@H](CCCCN)NC1=O)[C@@H](C)CC)[C@@H](C)O)[C@@H](C)CC)C(C)C)[C@@H](C)O)C(C)C)[C@@H](C)O)C(C)C)[C@@H](C)O [GFISTVKNLATNVAGTVIDTIKCKVTGGC]
7 | 25 (≈ 37.9 µg/mL) | 6 (≈ 9.08 µg/mL) |  | CSCC[C@H](NC(=O)[C@H](Cc1c[nH]c2ccccc12)NC(=O)[C@H](CC(C)C)NC(=O)[C@H](C)N)C(=O)N[C@H](C(=O)N[C@@H](CC(C)C)C(=O)N[C@@H](CC(C)C)C(=O)N[C@@H](CCCCN)C(=O)N[C@@H](CCCCN)C(=O)N[C@H](C(=O)N[C@@H](CC(C)C)C(=O)N[C@@H](CCCCN)C(=O)N[C@@H](C)C(N)=O)C(C)C)[C@@H](C)O [ALWMTLLKKVLKA]
8 | 1.61 (≈ 2 µg/mL) | 3.23 (≈ 4 µg/mL) |  | CC[C@H](C)[C@H](NC(=O)[C@H](CCCN=C(N)N)NC(=O)[C@H](CCCCN)NC(=O)[C@H](CC(C)C)NC(=O)[C@H](CC(C)C)NC(=O)CN)C(=O)N[C@@H](CCCCN)C(=O)N[C@@H](Cc1c[nH]c2ccccc12)C(=O)N[C@@H](CC(C)C)C(=O)N[C@@H](CC(C)C)C(N)=O [GLLKRIKWLL]
9 | 16 (≈ 30.1 µg/mL) |  |  | CC(C)C[C@H](NC(=O)[C@H](Cc1ccccc1)NC(=O)[C@@H]1CCCN1C(=O)[C@H](Cc1c[nH]c2ccccc12)NC(=O)[C@H](Cc1c[nH]c2ccccc12)NC(=O)[C@H](Cc1ccc(O)cc1)NC(=O)[C@@H]1CCCN1C(=O)[C@H](Cc1ccccc1)NC(=O)[C@H](CCCN=C(N)N)NC(=O)[C@H](CCCN=C(N)N)NC(=O)[C@@H](N)C(C)C)C(=O)N[C@@H](CCCN=C(N)N)C(=O)N[C@@H](CCCN=C(N)N)C(N)=O [VRRFPYWWPFLRR]
10 | 32.6 (≈ 50 µg/mL) | 32.6 (≈ 50 µg/mL) | 130 (≈ 200 µg/mL) | CSCC[C@H](NC(=O)[C@H](CCCN=C(N)N)NC(=O)[C@H](Cc1c[nH]c2ccccc12)NC(=O)[C@H](C)NC(=O)[C@H](Cc1c[nH]c2ccccc12)NC(=O)[C@H](CCCN=C(N)N)NC(=O)[C@H](CCCN=C(N)N)NC(=O)[C@H](C)NC(=O)[C@H](CCCCN)NC(=O)[C@@H](N)Cc1ccccc1)C(=O)N[C@@H](CCCCN)C(=O)O [FKARRWAWRMK]
11 | 29.5 (≈ 37 µg/mL) | 22.4 (≈ 28 µg/mL) |  | CC[C@H](C)[C@H](NC(=O)[C@H](CCCN=C(N)N)NC(=O)[C@H](CCCCN)NC(=O)[C@H](CC(C)C)NC(=O)[C@H](CC(C)C)NC(=O)[C@@H](N)CCCCN)C(=O)N[C@@H](CCCCN)C(=O)N[C@@H](CCCCN)C(=O)N[C@@H](CC(C)C)C(=O)N[C@@H](CC(C)C)C(N)=O [KLLKRIKKLL]
12 | > 285 | 142 (≈ 99.9 µg/mL) |  | NC(=O)[C@H](CCCN=C(N)N)NC(=O)[C@H](Cc1c[nH]c2ccccc12)NC(=O)[C@H](Cc1c[nH]c2ccccc12)NC(=O)[C@@H](N)CCCN=C(N)N [RWWR]
13 | 1.8 (≈ 2 µg/mL) | 1.8 (≈ 2 µg/mL) |  | CC[C@H](C)[C@H](NC(=O)[C@H](CCCCN)NC(=O)[C@H](CC(C)C)NC(=O)[C@H](CC(C)C)NC(=O)CN)C(=O)N[C@H](C(=O)N[C@@H](CCCCN)C(=O)N[C@H](C(=O)N[C@@H](CC(C)C)C(=O)N[C@@H](CC(C)C)C(N)=O)[C@@H](C)O)[C@@H](C)CC [GLLKIIKTLL]
14 | 7.8 (≈ 8 µg/mL) |  |  | CC(C)C[C@H](NC(=O)[C@H](CCC(N)=O)NC(=O)[C@H](CCCCN)NC(=O)[C@H](CCCN=C(N)N)NC(=O)[C@@H]1CCCN1C(=O)[C@H](C)N)C(=O)N[C@@H](CCCCN)C(=O)N[C@@H](Cc1c[nH]c2ccccc12)C(=O)O [APRKQLKW]
15 | > 200 |  |  | CC[C@H](C)[C@H](NC(=O)[C@H](CCCN=C(N)N)NC(=O)[C@H](CCCCN)NC(=O)[C@H](CCSC)NC(=O)[C@H](CC(C)C)NC(=O)CN)C(=O)N[C@@H](CCCCN)C(=O)N[C@H](C(=O)N[C@@H](CCSC)C(=O)N[C@@H](CC(C)C)C(N)=O)[C@@H](C)O [GLMKRIKTML]
16 | 2490 (≈ 2500 µg/mL) | 1250 (≈ 1250 µg/mL) |  | CC[C@H](C)[C@H](NC(=O)[C@H](CCC(=O)O)NC(=O)[C@H](C)NC(=O)[C@@H](NC(=O)[C@H](CCCCN)NC(=O)[C@H](CCCCN)NC(=O)CN)[C@@H](C)O)C(=O)N[C@@H](CCC(=O)O)C(=O)N[C@@H](CCCCN)C(=O)O [GKKTAEIEK]
17 |  |  | > 128 | CC(C)C[C@H](NC(=O)[C@H](CC(C)C)NC(=O)[C@H](CCCN=C(N)N)NC(=O)[C@H](CC(C)C)NC(=O)[C@H](CC(C)C)NC(=O)[C@H](CCCN=C(N)N)NC(=O)[C@H](CCCN=C(N)N)NC(=O)[C@H](CC(C)C)NC(=O)[C@H](CC(C)C)NC(=O)[C@H](CCCN=C(N)N)NC(=O)[C@H](CC(C)C)NC(=O)[C@H](CC(C)C)NC(=O)[C@H](CCCN=C(N)N)NC(=O)[C@H](CC(C)C)NC(=O)[C@H](CCCN=C(N)N)NC(=O)[C@H](CC(C)C)NC(=O)[C@H](CCCN=C(N)N)NC(=O)[C@H](CCCN=C(N)N)NC(=O)[C@@H](N)CC(C)C)C(=O)O [LRRLRLRLLRLLRRLLRLL]
18 | 8.12 (≈ 9.99 µg/mL) | 2.03 (≈ 2.5 µg/mL) | 6.09 (≈ 7.49 µg/mL) | NC(=O)[C@H](CCCN=C(N)N)NC(=O)[C@H](Cc1c[nH]c2ccccc12)NC(=O)[C@H](Cc1c[nH]c2ccccc12)NC(=O)[C@H](CCCN=C(N)N)NC(=O)[C@H](Cc1c[nH]c2ccccc12)NC(=O)[C@H](Cc1c[nH]c2ccccc12)NC(=O)[C@@H](N)CCCN=C(N)N [RWWRWWR]
19 | 15 (≈ 34.1 µg/mL) | 15 (≈ 34.1 µg/mL) |  | CC(C)C[C@H](NC(=O)[C@H](CC(C)C)NC(=O)[C@H](CC(C)C)NC(=O)[C@@H]1CCCN1C(=O)[C@H](CC(C)C)NC(=O)[C@@H](N)Cc1ccccc1)C(=O)N[C@@H](C)C(=O)NCC(=O)N[C@@H](CC(C)C)C(=O)N1CCC[C@H]1C(=O)N[C@@H](CCCCN)C(=O)N[C@@H](CC(C)C)C(=O)N[C@@H](CC(C)C)C(=O)N[C@H]1CSSC[C@@H](C(=O)O)NC(=O)[C@H](CCCCN)NC(=O)[C@H](CCCCN)NC(=O)[C@H](Cc2ccccc2)NC(=O)[C@H](Cc2ccccc2)NC(=O)[C@H](CC(C)C)NC1=O [FLPLLLAGLPKLLCLFFKKC]
20 | 32 (≈ 66.5 µg/mL) | > 32 |  | CC(C)[C@@H]1NC(=O)CNC(=O)[C@H](CCCN=C(N)N)NC(=O)[C@H](CCCN=C(N)N)NC(=O)[C@@H]2CSSC[C@H](NC1=O)C(=O)N[C@@H](CCCN=C(N)N)C(=O)N[C@H]1CSSC[C@H](NC(=O)[C@H](CCCN=C(N)N)NC(=O)[C@@H](NC(=O)[C@@H](NC(=O)CN)C(C)C)CSSC[C@@H](C(=O)N[C@@H](CCCN=C(N)N)C(=O)N[C@@H](CCCN=C(N)N)C(=O)O)NC(=O)[C@H](C(C)C)NC1=O)C(=O)N[C@@H](C(C)C)C(=O)N2 [GVCRCVCRRGVCRCVCRR]

Row | SMILES | MIC [1] [µM] | MIC [2] [µM] | MIC [3] [µM]
21 | CC[C@H](C)[C@H](NC(=O)[C@@H](N)Cc1ccc(O)cc1)C(=O)N[C@@H](CCCCN)C(=O)N[C@@H](CC(C)C)C(=O)N[C@@H](CC(C)C)C(=O)N[C@@H](CCCCN)C(=O)N[C@@H](CCC(=O)O)C(N)=O [YIKLLKE] | > 100 |  | > 100
